Here are results for 11 compounds from patent US20250230193A1, “CYCLIC COMPOUND HAVING SELECTIVE KRAS INHIBITORY EFFECT ON HRAS AND NRAS” (CHUGAI SEIYAKU KABUSHIKI KAISHA, priority 2022, published 2025).

For assay [1], the target named is GDP-bound HRAS wild-type protein (Homo sapiens, UniProt P01112). The assay can be described thus: Binding to HRAS by surface plasmon resonance (SPR), Single Cycle Kinetics. Conditions: SPR; KD ratio class.
Assay [2] concerns the target GDP-bound NRAS wild-type protein (Homo sapiens, UniProt P01111). Put plainly: Binding to NRAS by surface plasmon resonance (SPR), Single Cycle Kinetics. Conditions: SPR; KD ratio class. On the technique in general: SPR reads the build-up and loss of mass on a sensor chip optically.

Sequence of GDP-bound NRAS wild-type protein (P01111 whole entry): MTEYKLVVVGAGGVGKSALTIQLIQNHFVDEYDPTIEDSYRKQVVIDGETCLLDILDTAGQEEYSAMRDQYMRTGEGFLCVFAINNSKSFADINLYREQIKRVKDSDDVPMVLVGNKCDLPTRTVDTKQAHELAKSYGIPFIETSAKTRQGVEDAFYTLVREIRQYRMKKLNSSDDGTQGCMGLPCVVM
Sequence of GDP-bound HRAS wild-type protein (P01112 whole entry): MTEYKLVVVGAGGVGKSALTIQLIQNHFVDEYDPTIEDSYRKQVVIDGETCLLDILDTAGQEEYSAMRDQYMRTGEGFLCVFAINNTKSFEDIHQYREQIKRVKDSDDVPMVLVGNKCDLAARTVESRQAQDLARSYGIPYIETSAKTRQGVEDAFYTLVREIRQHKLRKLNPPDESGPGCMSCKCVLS

Consider `CCO[C@@H]1C[C@H]2C(=O)NC3(CCC3)C(=O)N(C)[C@@H](C3CCCC3)C(=O)N(C)[C@H](C(=O)N(C)CCOC)CC(=O)N(C)[C@@H](CC3CC3)C(=O)N[C@@H]([C@@H](C)CC)C(=O)N(C)CC(=O)N(C)[C@H]3C/C=C\CCN(C3=O)[C@@H](Cc3ccc(C(F)(F)F)cc3)C(=O)N(C)CC(=O)N[C@@H](CCc3ccc4sccc4c3)C(=O)N2C1` [PP1328], for which the “HRAS/KRAS (ratio of KD value for GDP-bound HRAS wild-type protein to KD value for KRAS)” value in assay [1] is “A (a compound having 10 or more and less than 20 is denoted as A)”. In addition, the “NRAS/KRAS (ratio of KD value for GDP-bound NRAS wild-type protein to KD value for KRAS)” value in assay [2] is “A (a compound having 10 or more and less than 20 is denoted as A)”.
`CCO[C@@H]1C[C@H]2C(=O)NC3(CCC3)C(=O)N(C)[C@@H](C3CCCC3)C(=O)N(C)[C@H](C(=O)N(C)CCOC)CC(=O)N(C)[C@@H](CC3CC3)C(=O)N[C@@H]([C@@H](C)CC)C(=O)N(C)CC(=O)N(C)[C@H]3C/C=C\CCN(C3=O)[C@@H](Cc3ccc(C(F)(F)F)cc3)C(=O)N(C)CC(=O)N[C@@H](CCc3ccc(Cl)c(Cl)c3)C(=O)N2C1` [PP1329]: in assay [1], the “HRAS/KRAS (ratio of KD value for GDP-bound HRAS wild-type protein to KD value for KRAS)” value is “A (a compound having 10 or more and less than 20 is denoted as A)”. Moreover, the “NRAS/KRAS (ratio of KD value for GDP-bound NRAS wild-type protein to KD value for KRAS)” value in assay [2] was “AA (a compound having 20 or more is denoted as AA)”.
With `CCO[C@@H]1C[C@H]2C(=O)NC3(CCC3)C(=O)N(C)[C@@H](C(CC)CC)C(=O)N(C)[C@H](C(=O)N(C)CCOC)CC(=O)N(C)[C@@H](CC)C(=O)N[C@@H]([C@@H](C)CC)C(=O)N(C)CC(=O)N(C)[C@H]3C/C=C\CCN(C3=O)[C@@H](Cc3ccc(C(F)(F)F)cc3)C(=O)N(C)CC(=O)N[C@@H](CCc3cc(F)c(C(F)(F)F)c(F)c3)C(=O)N2C1` [PP1330], the “HRAS/KRAS (ratio of KD value for GDP-bound HRAS wild-type protein to KD value for KRAS)” value in assay [1] is “A (a compound having 10 or more and less than 20 is denoted as A)”. Further, the “NRAS/KRAS (ratio of KD value for GDP-bound NRAS wild-type protein to KD value for KRAS)” value in assay [2] is listed as “AA (a compound having 20 or more is denoted as AA)”.
Consider `CCC[C@H]1C(=O)N[C@@H]([C@@H](C)CC)C(=O)N(C)CC(=O)N(C)[C@H]2C/C=C\CCN(C2=O)[C@@H](Cc2ccc(C(F)(F)F)cc2)C(=O)N(C)CC(=O)N[C@@H](CCc2cc(F)c(C(F)(F)F)c(F)c2)C(=O)N2C[C@H](OCC)C[C@H]2C(=O)NC2(CCC2)C(=O)N(C)[C@@H](C2CCCC2)C(=O)N(C)[C@H](C(=O)N(C)CCOC)CC(=O)N1C` [PP1331], for which, in assay [1], the “HRAS/KRAS (ratio of KD value for GDP-bound HRAS wild-type protein to KD value for KRAS)” value was “A (a compound having 10 or more and less than 20 is denoted as A)”. Also, the “NRAS/KRAS (ratio of KD value for GDP-bound NRAS wild-type protein to KD value for KRAS)” value in assay [2] is “A (a compound having 10 or more and less than 20 is denoted as A)”.
On to `CCO[C@@H]1C[C@H]2C(=O)NC3(CCC3)C(=O)N(C)[C@@H](C3CCCC3)C(=O)N(C)[C@H](C(=O)N(C)C)CC(=O)N(C)[C@@H](CC)C(=O)N[C@@H]([C@@H](C)CC)C(=O)N(C)CC(=O)N(C)[C@H]3CC/C=C(/C)CN(C3=O)[C@@H](Cc3ccc(C(F)(F)F)cc3)C(=O)N(C)CC(=O)N[C@@H](CCc3cc(F)c(C(F)(F)F)c(F)c3)C(=O)N2C1` [PP1334], for which the “HRAS/KRAS (ratio of KD value for GDP-bound HRAS wild-type protein to KD value for KRAS)” value in assay [1] is “B (a compound having 3 or more and less than 10 is denoted as B)”. Besides, in assay [2], the “NRAS/KRAS (ratio of KD value for GDP-bound NRAS wild-type protein to KD value for KRAS)” value was “B (a compound having 3 or more and less than 10 is denoted as B)”.
In the case of `CCO[C@@H]1C[C@H]2C(=O)NC3(CCC3)C(=O)N(C)[C@@H](C3CCCC3)C(=O)N(C)[C@H](C(=O)N3CCOCC3)CC(=O)N(C)[C@@H](CC)C(=O)N[C@@H]([C@@H](C)CC)C(=O)N(C)CC(=O)N(C)[C@H]3CC/C=C(/C)CN(C3=O)[C@@H](Cc3ccc(C(F)(F)F)cc3)C(=O)N(C)CC(=O)N[C@@H](CCc3cc(F)c(C(F)(F)F)c(F)c3)C(=O)N2C1` [PP1335], the “HRAS/KRAS (ratio of KD value for GDP-bound HRAS wild-type protein to KD value for KRAS)” value in assay [1] is “B (a compound having 3 or more and less than 10 is denoted as B)”. The “NRAS/KRAS (ratio of KD value for GDP-bound NRAS wild-type protein to KD value for KRAS)” value in assay [2] is “B (a compound having 3 or more and less than 10 is denoted as B)”.
As to `CCCN(C)C(=O)[C@@H]1CC(=O)N(C)[C@@H](CC(C)C)C(=O)N[C@@H]([C@@H](C)CC)C(=O)N(C)CC(=O)N(C)[C@H]2C/C=C\CCN(C2=O)[C@@H](Cc2ccc(C(F)(F)F)cc2)C(=O)N(C)CC(=O)N[C@@H](CCc2cc(F)c(C(F)(F)F)c(F)c2)C(=O)N2C[C@H](OCC)C[C@H]2C(=O)NC2(CCC2)C(=O)N(C)[C@@H](C2CCCC2)C(=O)N1C` [PP1387], the “HRAS/KRAS (ratio of KD value for GDP-bound HRAS wild-type protein to KD value for KRAS)” value in assay [1] was “B (a compound having 3 or more and less than 10 is denoted as B)”. The “NRAS/KRAS (ratio of KD value for GDP-bound NRAS wild-type protein to KD value for KRAS)” value in assay [2] is “A (a compound having 10 or more and less than 20 is denoted as A)”.
In the case of `CCCN(C)C(=O)[C@@H]1CC(=O)N(C)[C@@H](CC2CC2)C(=O)N[C@@H]([C@@H](C)CC)C(=O)N(C)CC(=O)N(C)[C@H]2C/C=C\CCN(C2=O)[C@@H](Cc2ccc(C(F)(F)F)cc2)C(=O)N(C)CC(=O)N[C@@H](CCc2cc(F)c(C(F)(F)F)c(F)c2)C(=O)N2C[C@H](OCC)C[C@H]2C(=O)NC2(CCC2)C(=O)N(C)[C@@H](C2CCCC2)C(=O)N1C` [PP1388], the “HRAS/KRAS (ratio of KD value for GDP-bound HRAS wild-type protein to KD value for KRAS)” value in assay [1] is “B (a compound having 3 or more and less than 10 is denoted as B)”. For the same compound, the “NRAS/KRAS (ratio of KD value for GDP-bound NRAS wild-type protein to KD value for KRAS)” value in assay [2] was “A (a compound having 10 or more and less than 20 is denoted as A)”.
With `CCC[C@H]1C(=O)N[C@@H]([C@@H](C)CC)C(=O)N(C)CC(=O)N(C)[C@H]2C/C=C\CCN(C2=O)[C@@H](Cc2ccc(C(F)(F)F)cc2)C(=O)N(C)CC(=O)N[C@@H](CCc2cc(F)c(C(F)(F)F)c(F)c2)C(=O)N2C[C@H](OCC)C[C@H]2C(=O)NC2(CCC2)C(=O)N(C)[C@@H](C2CCCC2)C(=O)N(C)[C@H](C(=O)N(C)CCC)CC(=O)N1C` [PP1389], the “HRAS/KRAS (ratio of KD value for GDP-bound HRAS wild-type protein to KD value for KRAS)” value in assay [1] is “A (a compound having 10 or more and less than 20 is denoted as A)”. In assay [2], the “NRAS/KRAS (ratio of KD value for GDP-bound NRAS wild-type protein to KD value for KRAS)” value is recorded as “AA (a compound having 20 or more is denoted as AA)”.
In the case of `CC[C@H](C)[C@@H]1NC(=O)[C@H](CC2CC2)N(C)C(=O)C[C@@H](C(=O)N(C)C)N(C)C(=O)[C@H](C2CCCC2)N(C)C(=O)C2(CCC2)NC(=O)[C@@H]2[C@@H](OCC(F)F)CCN2C(=O)[C@H](CCc2cc(F)c(C(F)(F)F)c(F)c2)NC(=O)CN(C)C(=O)[C@H](Cc2ccc(C(F)(F)F)cc2)N2CC/C=C\C[C@@H](C2=O)N(C)C(=O)CN(C)C1=O` [PP1533], in assay [1], the “HRAS/KRAS (ratio of KD value for GDP-bound HRAS wild-type protein to KD value for KRAS)” value was “A (a compound having 10 or more and less than 20 is denoted as A)”. The “NRAS/KRAS (ratio of KD value for GDP-bound NRAS wild-type protein to KD value for KRAS)” value in assay [2] was “AA (a compound having 20 or more is denoted as AA)”.
Take `CC[C@H](C)[C@@H]1NC(=O)[C@H](CC(C)C)N(C)C(=O)C[C@@H](C(=O)N(C)C)N(C)C(=O)[C@H](C2CCCC2)N(C)C(=O)C2(CCC2)NC(=O)[C@@H]2[C@@H](OCC(F)F)CCN2C(=O)[C@H](CCc2cc(F)c(C(F)(F)F)c(F)c2)NC(=O)CN(C)C(=O)[C@H](Cc2ccc(C(F)(F)F)cc2)N2CC/C=C\C[C@@H](C2=O)N(C)C(=O)CN(C)C1=O` [PP1534]: in assay [1], the “HRAS/KRAS (ratio of KD value for GDP-bound HRAS wild-type protein to KD value for KRAS)” value was “A (a compound having 10 or more and less than 20 is denoted as A)”. The “NRAS/KRAS (ratio of KD value for GDP-bound NRAS wild-type protein to KD value for KRAS)” value in assay [2] is reported as “AA (a compound having 20 or more is denoted as AA)”.
